US4156724A, “N-acylamino-alpha-arylacetamido cephalosporins and antibacterial compositions and methods containing them” (Sumitomo Chemical Company, Limited, priority 1974, dated 1979)
Converted amounts (≈) assume the structure as drawn. Like-named read-outs stand apart in the source and are kept apart here. One block for each compound: values may come before it.

Key:
Assay type in all cases: cell-based
[1] = tested on: Staphylococcus aureus 209 P; assay: Minimum Inhibitory Concentration, Staphylococcus aureus 209 P; details: Staphylococcus aureus 209 P; for MIC: read-out: Minimum Inhibitory Concentration
Description: (§1) anti-microbial activity tests were carried out on the compounds obtained in the Examples.

Escherichia coli NIHJ = assay: Minimum Inhibitory Concentration, Escherichia coli NIHJ; details: Escherichia coli NIHJ; for MIC: read-out: Minimum Inhibitory Concentration
Description: as §1

[2] = tested on: Pseudomonas aeruginosa 104; assay: Minimum Inhibitory Concentration, Pseudomonas aeruginosa 104; details: Pseudomonas aeruginosa 104; for MIC: read-out: Minimum Inhibitory Concentration
Description: as §1

[3] = tested on: Enterobacter aerogeneus No. 75; assay: Minimum Inhibitory Concentration, Enterobacter aerogeneus No. 75; details: Enterobacter aerogeneus No. 75; for MIC: read-out: Minimum Inhibitory Concentration
Description: as §1

Proteus vulgaris HX 19 = assay: Minimum Inhibitory Concentration, Proteus vulgaris HX 19; details: Proteus vulgaris HX 19; for MIC: HX19, read-out: Minimum Inhibitory Concentration
Description: as §1

[4] = tested on: Staphylococcus aureus FS 289; assay: Minimum Inhibitory Concentration, Staphylococcus aureus FS 289
Description: as §1
*Staphylococcus aureus FS 289: strain resistant to penicillin

[5] = tested on: Klebsiella pneumoniae 602; assay: Minimum Inhibitory Concentration, Klebsiella pneumoniae 602; details: for MIC: Klebsiella pneumoniae, 602, Klebsiella pneumoniae 602, read-out: Minimum Inhibitory Concentration
Description: as §1

Serratia No. 72 = assay: Minimum Inhibitory Concentration, Serratia No. 72
Description: as §1

[6] = FS289, Staphylococcus aureus FS 289, strain resistant to penicillin, read-out: Minimum Inhibitory Concentration

Structure (SMILES): Cc1ccc2c(O)c(C(=O)N[C@@H](C(=O)N[C@@H]3C(=O)N4C(C(=O)O)=C(CSc5nnc(C)s5)CS[C@H]34)c3ccc(NC(N)=O)cc3)cnc2n1 [Example 25]
- MIC [1]: 1.56 µg/mL (≈ 2.16 µM)
- MIC (Escherichia coli NIHJ): 3.13 µg/mL (≈ 4.34 µM)
- MIC [2]: 3.13 µg/mL (≈ 4.34 µM)
- MIC [3]: 6.25 µg/mL (≈ 8.66 µM)
- MIC (Proteus vulgaris HX 19): 0.39 µg/mL (≈ 0.54 µM)
- MIC [4, 6]: 6.25 µg/mL (≈ 8.66 µM)
- MIC [5]: 3.13 µg/mL (≈ 4.34 µM)
- MIC (Serratia No. 72): 12.5 µg/mL (≈ 17.3 µM)

Structure (SMILES): Cc1ccc2c(O)c(C(=O)N[C@@H](C(=O)N[C@@H]3C(=O)N4C(C(=O)O)=C(CSc5nnnn5C)CS[C@H]34)c3ccc(NC(N)=O)cc3)cnc2n1 [Example 26]
- MIC [1]: 1.56 µg/mL (≈ 2.21 µM)
- MIC (Escherichia coli NIHJ): 3.13 µg/mL (≈ 4.44 µM)
- MIC [2]: 3.13 µg/mL (≈ 4.44 µM)
- MIC [3]: 6.25 µg/mL (≈ 8.86 µM)
- MIC (Proteus vulgaris HX 19): 0.2 µg/mL (≈ 0.283 µM)
- MIC [4, 6]: 6.25 µg/mL (≈ 8.86 µM)
- MIC [5]: 3.13 µg/mL (≈ 4.44 µM)
- MIC (Serratia No. 72): 12.5 µg/mL (≈ 17.7 µM)

Structure (SMILES): CN(C)c1ccc2ncc(C(=O)N[C@@H](C(=O)N[C@@H]3C(=O)N4C(C(=O)O)=C(CSc5cnn[nH]5)CS[C@H]34)c3ccc(NC(N)=O)cc3)c(O)c2n1 [Example 27]
- MIC [1]: 1.56 µg/mL (≈ 2.17 µM)
- MIC (Escherichia coli NIHJ): 3.13 µg/mL (≈ 4.35 µM)
- MIC [2]: 3.13 µg/mL (≈ 4.35 µM)
- MIC [3]: 3.13 µg/mL (≈ 4.35 µM)
- MIC (Proteus vulgaris HX 19): 0.2 µg/mL (≈ 0.278 µM)
- MIC ([4]; Staphylococcus aureus, FS289, read-out: Minimum Inhibitory Concentration): 6.25 µg/mL (≈ 8.68 µM)
- MIC [5]: 1.56 µg/mL (≈ 2.17 µM)
- MIC (Serratia No. 72): 12.5 µg/mL (≈ 17.4 µM)

Structure (SMILES): Cc1nnc(SCC2=C(C(=O)O)N3C(=O)[C@@H](NC(=O)[C@H](NC(=O)c4cnc5ccc(N(C)C)nc5c4O)c4ccc(NC(N)=O)cc4)[C@H]3SC2)s1 [Example 28]
- MIC [1]: 1.56 µg/mL (≈ 2.08 µM)
- MIC (Escherichia coli NIHJ): 1.56 µg/mL (≈ 2.08 µM)
- MIC [2]: 3.13 µg/mL (≈ 4.17 µM)
- MIC [3]: 3.13 µg/mL (≈ 4.17 µM)
- MIC (Proteus vulgaris HX 19): 0.1 µg/mL (≈ 0.133 µM)
- MIC [4, 6]: 6.25 µg/mL (≈ 8.32 µM)
- MIC [5]: 1.56 µg/mL (≈ 2.08 µM)
- MIC (Serratia No. 72): 12.5 µg/mL (≈ 16.6 µM)

Structure (SMILES): CN(C)c1ccc2ncc(C(=O)NC(C(=O)NC3C(=O)N4C(C(=O)[O-])=C(CSc5nnnn5C)CSC34)c3ccc(NC(N)=O)cc3)c(O)c2n1.[Na+] (stereo not drawn) [Example 29]
- Minimum Inhibitory Concentration [1]: 0.78 µg/mL
- Minimum Inhibitory Concentration (Escherichia coli NIHJ): 1.56 µg/mL
- Minimum Inhibitory Concentration [2]: 3.13 µg/mL
- Minimum Inhibitory Concentration [3]: 3.13 µg/mL
- Minimum Inhibitory Concentration (Proteus vulgaris HX 19): 0.2 µg/mL
- Minimum Inhibitory Concentration ([4]; Staphylococcus aureus FS 289, strain resistant to penicillin): 6.25 µg/mL
- Minimum Inhibitory Concentration ([5]; Klebsiella pneumoniae 602): 1.56 µg/mL
- Minimum Inhibitory Concentration (Serratia No. 72): 12.5 µg/mL

Structure (SMILES): COc1cnc2c(O)c(C(=O)N[C@@H](C(=O)N[C@@H]3C(=O)N4C(C(=O)O)=C(COC(C)=O)CS[C@H]34)c3cccc(NC(N)=O)c3)cnc2n1 [Example 31]
- MIC [1]: 0.78 µg/mL (≈ 1.17 µM)
- MIC (Escherichia coli NIHJ): 3.13 µg/mL (≈ 4.7 µM)
- MIC [2]: 6.25 µg/mL (≈ 9.38 µM)
- MIC [3]: 25 µg/mL (≈ 37.5 µM)
- MIC (Proteus vulgaris HX 19): 0.39 µg/mL (≈ 0.585 µM)
- MIC [4, 6]: 6.25 µg/mL (≈ 9.38 µM)
- MIC [5]: 3.13 µg/mL (≈ 4.7 µM)
- MIC (Serratia No. 72): 50 µg/mL (≈ 75 µM)

More lines, now with the values ahead:

- MIC [1]: 0.78 µg/mL (≈ 1.23 µM)
- MIC (Escherichia coli NIHJ): 3.13 µg/mL (≈ 4.92 µM)
- MIC [2]: 6.25 µg/mL (≈ 9.82 µM)
- MIC [3]: 12.5 µg/mL (≈ 19.6 µM)
- MIC (Proteus vulgaris HX 19): 0.39 µg/mL (≈ 0.613 µM)
- MIC [4, 6]: 6.25 µg/mL (≈ 9.82 µM)
- MIC [5]: 3.13 µg/mL (≈ 4.92 µM)
- MIC (Serratia No. 72): 50 µg/mL (≈ 78.5 µM)
Structure (SMILES): CC(=O)OCC1=C(C(=O)O)N2C(=O)[C@@H](NC(=O)[C@H](NC(=O)c3cnc4cncnc4c3O)c3cccc(NC(N)=O)c3)[C@H]2SC1 [Example 32]

- MIC [1]: 0.78 µg/mL (≈ 1.17 µM)
- MIC (Escherichia coli NIHJ): 3.13 µg/mL (≈ 4.7 µM)
- MIC [2]: 6.25 µg/mL (≈ 9.39 µM)
- MIC [3]: 12.5 µg/mL (≈ 18.8 µM)
- MIC (Proteus vulgaris HX 19): 0.78 µg/mL (≈ 1.17 µM)
- MIC [4, 6]: 6.78 µg/mL (≈ 10.2 µM)
- MIC [5]: 3.13 µg/mL (≈ 4.7 µM)
- MIC (Serratia No. 72): 50 µg/mL (≈ 75.1 µM)
Structure (SMILES): COc1ccc2ncc(C(=O)N[C@@H](C(=O)N[C@@H]3C(=O)N4C(C(=O)O)=C(COC(C)=O)CS[C@H]34)c3cccc(NC(N)=O)c3)c(O)c2n1 [Example 33]

- MIC [1]: 0.78 µg/mL (≈ 1.14 µM)
- MIC (Escherichia coli NIHJ): 3.13 µg/mL (≈ 4.59 µM)
- MIC [2]: 6.25 µg/mL (≈ 9.17 µM)
- MIC [3]: 12.5 µg/mL (≈ 18.3 µM)
- MIC (Proteus vulgaris HX 19): 0.78 µg/mL (≈ 1.14 µM)
- MIC [4, 6]: 6.25 µg/mL (≈ 9.17 µM)
- MIC [5]: 3.13 µg/mL (≈ 4.59 µM)
- MIC (Serratia No. 72): 50 µg/mL (≈ 73.3 µM)
Structure (SMILES): CSc1ccc2ncc(C(=O)N[C@@H](C(=O)N[C@@H]3C(=O)N4C(C(=O)O)=C(COC(C)=O)CS[C@H]34)c3cccc(NC(N)=O)c3)c(O)c2n1 [Example 34]

- MIC [1]: 1.56 µg/mL (≈ 2.35 µM)
- MIC (Escherichia coli NIHJ): 6.25 µg/mL (≈ 9.4 µM)
- MIC [2]: 6.25 µg/mL (≈ 9.4 µM)
- MIC [3]: 25 µg/mL (≈ 37.6 µM)
- MIC (Proteus vulgaris HX 19): 0.39 µg/mL (≈ 0.587 µM)
- MIC [4, 6]: 6.25 µg/mL (≈ 9.4 µM)
- MIC [5]: 3.13 µg/mL (≈ 4.71 µM)
- MIC (Serratia No. 72): 50 µg/mL (≈ 75.2 µM)
Structure (SMILES): CC(=O)OCC1=C(C(=O)O)N2C(=O)[C@@H](NC(=O)[C@H](NC(=O)c3cnc4nc(C)c(C)nc4c3O)c3ccc(NC(N)=O)cc3)[C@H]2SC1 [Example 35]

- MIC [1]: 0.78 µg/mL (≈ 1.08 µM)
- MIC (Escherichia coli NIHJ): 3.13 µg/mL (≈ 4.32 µM)
- MIC [2]: 3.13 µg/mL (≈ 4.32 µM)
- MIC [3]: 6.25 µg/mL (≈ 8.64 µM)
- MIC (Proteus vulgaris HX 19): 0.2 µg/mL (≈ 0.276 µM)
- MIC [4, 6]: 6.25 µg/mL (≈ 8.64 µM)
- MIC [5]: 1.56 µg/mL (≈ 2.16 µM)
- MIC (Serratia No. 72): 12.5 µg/mL (≈ 17.3 µM)
Structure (SMILES): NC(=O)Nc1cccc([C@@H](NC(=O)c2cnc3cccnc3c2O)C(=O)N[C@@H]2C(=O)N3C(C(=O)O)=C(CSc4nnc(CO)s4)CS[C@H]23)c1 [Example 36]

- MIC [1]: 0.78 µg/mL (≈ 1.11 µM)
- MIC (Escherichia coli NIHJ): 1.56 µg/mL (≈ 2.22 µM)
- MIC [2]: 3.13 µg/mL (≈ 4.45 µM)
- MIC [3]: 6.25 µg/mL (≈ 8.88 µM)
- MIC (Proteus vulgaris HX 19): 0.2 µg/mL (≈ 0.284 µM)
- MIC [4, 6]: 6.25 µg/mL (≈ 8.88 µM)
- MIC [5]: 1.56 µg/mL (≈ 2.22 µM)
- MIC (Serratia No. 72): 12.5 µg/mL (≈ 17.8 µM)
Structure (SMILES): NC(=O)Nc1cccc([C@@H](NC(=O)c2cnc3cccnc3c2O)C(=O)N[C@@H]2C(=O)N3C(C(=O)O)=C(CSc4ccc(O)nn4)CS[C@H]23)c1 [Example 37]
